Laboratory results taken from US6100279A, “Imidazoylalkyl substituted with a five, six or seven membered heterocyclic ring containing one nitrogen atom” (Schering Corporation, priority 1998, dated 2000).

Molecular target: T1, H3 receptor (Cavia porcellus, UniProt Q9JI35)
T1 construct: The source of the H3 receptors in this experiment was guinea pig brain; from tissue; host or cells: guinea pig brain membranes
Assay: H3 Receptor Binding Assay (displacement of [3H]R-α-methylhistamine or [3H]-N-methylhistamine)
Settings: guinea pig brain membranes; 3 nM [3H]R-α-methylhistamine or [3H]-N-methylhistamine; 30°, 30 min; duplicate, standard error less than 10%
Protocol: The compounds of this invention are either agonists or antagonists of the histamine H3 receptor. […] The animals used weighed 400-600 g. The tissue was homogenized using a Polytron in a solution of 50 mM Tris, pH 7.5. The final concentration of tissue in the homogenization buffer was 10% w/v. The homogenates were centrifuged at 1000×g for 10 min. in order to remove clumps of tissue and debris. […] The membranes were frozen and stored at -70° C. until needed. All compounds to be tested were dissolved in DMSO and then diluted into the binding buffer (50 mM Tris, pH 7.5) such that the final concentration was 2 μg/ml with 0.1% DMSO. Membranes were then added (400 μg of protein) to the reaction tubes. […] Bound ligand was separated from unbound ligand by filtration, and the amount of radioactive ligand bound to the membranes was quantitated by liquid scintillation spectrometry.

T1 sequence (Q9JI35 whole entry): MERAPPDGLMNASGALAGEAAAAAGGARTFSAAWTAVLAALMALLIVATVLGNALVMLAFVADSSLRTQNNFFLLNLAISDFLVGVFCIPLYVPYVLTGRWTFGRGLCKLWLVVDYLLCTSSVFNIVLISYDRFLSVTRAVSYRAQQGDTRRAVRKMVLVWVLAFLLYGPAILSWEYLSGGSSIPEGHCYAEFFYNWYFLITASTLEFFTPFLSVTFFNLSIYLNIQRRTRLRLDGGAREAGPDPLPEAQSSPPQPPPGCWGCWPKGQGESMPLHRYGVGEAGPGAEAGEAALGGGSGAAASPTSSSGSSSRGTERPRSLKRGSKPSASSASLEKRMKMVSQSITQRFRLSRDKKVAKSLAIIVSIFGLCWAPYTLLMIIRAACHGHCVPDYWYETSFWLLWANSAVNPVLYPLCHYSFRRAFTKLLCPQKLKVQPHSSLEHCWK

Ki [nM]	Structure (SMILES)
50	O=C(CC(=O)N1CCC(Cc2cnc[nH]2)CC1)Nc1cccc(Cl)c1 [Compound 95]
9	Clc1ccc(OCCCN2CCC(Cc3cnc[nH]3)CC2)cc1 [Compound 88]
5	O=C(CCOc1ccccc1)N1CCC(Cc2cnc[nH]2)CC1 [Compound 86]
0.4	O=C(CCN1CCC(Cc2cnc[nH]2)CC1)Nc1ccc(Cl)cc1 [Compound 84]
0.9	O=C(CCN1CCC(CCc2cnc[nH]2)C1)Nc1ccc(Cl)cc1 (centres unmarked) [Compound 45]
11	O=C(CCN1CCC(CCc2cnc[nH]2)CC1)Nc1ccc(Cl)cc1 [Compound 116]
150	O=S(=O)(c1ccc(Cl)cc1)N1CCC(Cc2cnc[nH]2)CC1 [Compound 78]
4	c1ccc(OCCCN2CCC(Cc3cnc[nH]3)CC2)cc1 [Compound 79]
0.7	O=C(CCN1CCC(Cc2cnc[nH]2)CC1)Nc1cc(Cl)cc(Cl)c1 [Compound 83]
40	O=C(CCc1ccc(Cl)cc1)N1CCC(Cc2cnc[nH]2)CC1 [Compound 93]
90	O=C(CN1CCC(Cc2cnc[nH]2)CC1)Nc1ccc(Cl)cc1 [Compound 90]
160	O=C(Nc1ccc(Cl)cc1)N1CCC(Cc2cnc[nH]2)CC1 [Compound 92]
60	FC(F)(F)c1ccc(NCCCN2CCC(CCc3cnc[nH]3)CC2)cc1 [Compound 114]
50	O=C(CCN1CCC(CCc2cnc[nH]2)CC1)Nc1ccc(C(F)(F)F)cc1 [Compound 117]
20	O=C(Nc1cccc(Cl)c1)N1CCC(Cc2cnc[nH]2)CC1 [Compound 91]
220	O=C(Nc1cc(Cl)cc(Cl)c1)N1CCC(Cc2cnc[nH]2)CC1 [Compound 85]
57	O=C(Cc1ccc(Cl)c(Cl)c1)N1CCC(CCc2cnc[nH]2)CC1 [Compound 115]
0.2	O=C(CCN1CCC(Cc2cnc[nH]2)CC1)Nc1cccc(Cl)c1 [Compound 81]
5	O=C(CCN1CCC(Cc2cnc[nH]2)CC1)Nc1ccc(I)cc1 [Compound 89]
8	O=C(CCCc1ccccc1)N1CCC(Cc2cnc[nH]2)CC1 [Compound 96]
9	O=C(CCOc1ccc(Cl)cc1)N1CCC(Cc2cnc[nH]2)CC1 [Compound 87]
0.1	O=C(CCN1CCC(Cc2c[nH]cn2)CC1)Nc1cccc(F)c1 [Compound 94]
210	O=C(Nc1cccc(Cl)c1)N1CCC(CCc2cnc[nH]2)CC1 [Compound 118]
0.7	O=C(CCN1CCC(Cc2c[nH]cn2)CC1)NCCc1ccc(Cl)cc1 [Compound 82]
58	O=S(=O)(c1ccc(OC(F)(F)F)cc1)N1CCC(CCc2cnc[nH]2)C1 (centres unmarked) [Compound 97]

Tested on: H3 receptors in rat brain
Assay: not given
Settings: cited from Arrang et al.; cited from earlier work

Structure (SMILES)	maximal inhibition of release
NCCc1c[nH]cn1 [histamine]	approximately 60%
